Measured values published in BindingDB's records for doi:10.1016/j.bmc.2019.07.003 (Tokyo Medical and Dental University, 2019).

Assay: Transactivation of VDR in human Macrophage-like cell assessed as cell differentiation measured after 4 days by NBT dye-based assay

- EC50: 1200 nM
SMILES: C[C@H](CCC(=O)O)[C@H]1CC[C@H]2[C@@H]3CC[C@@H]4C[C@H](OS(C)(=O)=O)CC[C@]4(C)[C@H]3CC[C@]12C
